Target: T1, human SSAO, full-length, untagged (Homo sapiens, UniProt Q16853)
T1 construct: expressed in transfected cells; cleared NP-40 cell lysate
T1 sequence (Q16853 1-763): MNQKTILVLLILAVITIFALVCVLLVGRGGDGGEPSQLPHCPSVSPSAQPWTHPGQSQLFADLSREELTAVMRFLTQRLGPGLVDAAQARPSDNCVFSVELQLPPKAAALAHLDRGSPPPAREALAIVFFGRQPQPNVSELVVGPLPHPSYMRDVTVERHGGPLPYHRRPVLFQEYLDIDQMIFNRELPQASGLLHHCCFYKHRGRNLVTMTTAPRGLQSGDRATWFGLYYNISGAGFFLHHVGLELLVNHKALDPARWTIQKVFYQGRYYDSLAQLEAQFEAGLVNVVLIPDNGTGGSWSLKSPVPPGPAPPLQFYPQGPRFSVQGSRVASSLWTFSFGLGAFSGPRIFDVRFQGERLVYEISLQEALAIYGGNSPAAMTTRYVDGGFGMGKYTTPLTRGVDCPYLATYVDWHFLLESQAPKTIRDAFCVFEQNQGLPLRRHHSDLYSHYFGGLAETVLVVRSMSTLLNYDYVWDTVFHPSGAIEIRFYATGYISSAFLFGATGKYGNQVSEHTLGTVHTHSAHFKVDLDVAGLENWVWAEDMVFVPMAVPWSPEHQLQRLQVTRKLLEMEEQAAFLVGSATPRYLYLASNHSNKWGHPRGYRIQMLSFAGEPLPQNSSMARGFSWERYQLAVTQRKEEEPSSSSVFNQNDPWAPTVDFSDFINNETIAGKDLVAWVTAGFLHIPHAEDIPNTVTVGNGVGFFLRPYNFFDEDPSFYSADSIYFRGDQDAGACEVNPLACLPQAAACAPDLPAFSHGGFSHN
Test: Benzylamine stability in lysate of cells expressing full-length SSAO (untagged), LC/MS/MS
Format: in vitro ADME
Protocol: The expression constructs were prepared by cloning these PCR products into the pCDNA5-FRT-To-DEST vector (Invitrogen, Gateway System™). The forward and reverse DNA sequence of each construct was confirmed including expressed sequences and at least 100 base pairs either side of this. Stable cell lines for Flp-In CHO, Flp-In CHO T-Rex, and Flp-In HEK 293 (Invitrogen, Flp-In system™) were generated using these 6 constructs according to manufacturer's instructions. Cells were co-transfected with the regulatory vector, pOG44, and each of the pCDNA5-FRT-To-DEST constructs using Lipfectamine (Invitrogen) according to manufacturer's instructions. Thus, 18 cell lines were generated: CHO Flp-In full-length SSAO; CHO Flp-In full-length SSAO with C-terminal 6×HIS tag; CHO Flp-In T1 SSAO; CHO Flp-In T1 SSAO with C-terminal 6×HIS tag; CHO Flp-In T2 SSAO; CHO Flp-In T2 SSAO with C-terminal 6×HIS tag; CHO T-Rex Flp-In full-length SSAO; CHO T-Rex Flp-In full-length SSAO with C-terminal 6×HIS tag; CHO T-Rex Flp-In T1 SSAO; CHO T-Rex Flp-In T1 SSAO with C-terminal 6×HIS tag; CHO T-Rex Flp-In T2 SSAO; CHO Flp-In T2 SSAO with C-terminal 6×HIS tag; HEK 293 Flp-In full-length SSAO; HEK 293 Flp-In full-length SSAO with C-terminal 6×HIS tag; HEK 293 Flp-In T1 SSAO; HEK 293 Flp-In T1 SSAO with C-terminal 6×HIS tag; HEK 293 Flp-In T2 SSAO; HEK 293 Flp-In T2 SSAO with C-terminal 6×HIS tag.
Adherent CHO cells were cultured at 37° C., 5% CO2 in media containing Ham's F12, 10% fetal bovine serum, 2 mM L-glutamine, 1% Penicillin/Streptomycin, 300 μM hygromycin B. Adherent HEK 293 cells were cultured at 37° C., 5% CO2 in D-MEM (high glucose), 10% fetal bovine serum, 2 mM L-glutamine, and 200 μM hygromycin B. Stable transformants were identified by loss of zeocin resistance. Once the cells were 80% confluent, SSAO expression was induced by the addition of Tetracycline to 1 μg/mL. Following 18 hours, the cells were harvested using a trypsin treatment of 3 minutes, at room temperature. Cells were washed 3 times in phosphate buffered saline before flash freezing in liquid nitrogen.
For the preparation of cell lysate for activity testing, frozen cell pellets were resuspended in lysate buffer containing 10 mM Tris-HCl (pH 7.2), 150 mM NaCl, 1.5 mM MgCl2, 1% v/v NP-40 and incubated for 15 minutes on ice. Lysate was cleared by centrifugation 800×g for 10 minutes, 4° C. and stored in aliquots at −80° C. until use. Proteins were determined using Pierce Coomassie Protein Reagent, according to manufacturer's instructions.
For each assay run, 1 mL of cell lysate (1.5 mg/mL protein) was mixed with benzylamine to 2000 ng/mL final concentration. At each corresponding time point, […] the incubation mixture was transferred to a microcentrifuge tube (1.7 mL) and mixed with 50 μL of acetonitrile. The tubes were vortex mixed briefly to ensure complete mixing and then centrifuged at 10,000×g for 5 minutes. The supernatant was removed and 50 μL was transferred to an autosampler vial and mixed with 50 μL of water before LC/MS/MS analysis. Benzylamine remaining in the lysate was analyzed with LC/MS/MS method.
LC/MS/MS analysis was performed with a PE Sciex API 3000 mass spectrometer under the following conditions listed below and in Tables 1 and 2:
The active lysates from CHO Flp-In, CHO Flp-In T-Rex or HEK293 Flp-In expressing full-length SSAO (untagged) were subsequently tested and activity confirmed (Table 4).

NCc1ccccc1 [Benzylamine]
Benzylamine Remaining (%) (CHO Flp-In T-Rex lysate, Full-length SSAO, tag None, 0 min (Table 3)): 100%
Benzylamine Remaining (%) (CHO Flp-In T-Rex lysate, Full-length SSAO, tag None, 10 min (Table 3)): 6%
Benzylamine Remaining (%) (CHO Flp-In T-Rex lysate, Full-length SSAO, tag None, 2 h (Table 3)): 0%
Benzylamine Remaining (%) (CHO Flp-In T-Rex, full-length SSAO (untagged), 0 min, subsequent test (Table 4)): 100%
Benzylamine Remaining (%) (CHO Flp-In T-Rex, full-length SSAO (untagged), 10 min, subsequent test (Table 4)): 16%
Benzylamine Remaining (%) (CHO Flp-In T-Rex, full-length SSAO (untagged), 30 min, subsequent test (Table 4)): 1%
Benzylamine Remaining (%) (CHO Flp-In lysate, Full-length SSAO, tag None, 0 min (Table 3)): 100%
Benzylamine Remaining (%) (CHO Flp-In lysate, Full-length SSAO, tag None, 10 min (Table 3)): 1%
Benzylamine Remaining (%) (CHO Flp-In lysate, Full-length SSAO, tag None, 2 h (Table 3)): 1%
Benzylamine Remaining (%) (CHO Flp-In, full-length SSAO (untagged), 0 min, subsequent test (Table 4)): 100%
Benzylamine Remaining (%) (CHO Flp-In, full-length SSAO (untagged), 10 min, subsequent test (Table 4)): 9%
Benzylamine Remaining (%) (CHO Flp-In, full-length SSAO (untagged), 30 min, subsequent test (Table 4)): 1%
Benzylamine Remaining (%) (HEK293 Flp-In, full-length SSAO (untagged), 0 min, subsequent test (Table 4)): 100%
Benzylamine Remaining (%) (HEK293 Flp-In, full-length SSAO (untagged), 10 min, subsequent test (Table 4)): 50%
Benzylamine Remaining (%) (HEK293 Flp-In, full-length SSAO (untagged), 30 min, subsequent test (Table 4)): 9%
Benzylamine Remaining (%) (HEK293 lysate, Full-length SSAO, tag None, 0 min (Table 3)): 100%
Benzylamine Remaining (%) (HEK293 lysate, Full-length SSAO, tag None, 10 min (Table 3)): 58%
Benzylamine Remaining (%) (HEK293 lysate, Full-length SSAO, tag None, 2 h (Table 3)): 2%

— US8883410B2, “Method for determining the stability of organic methyleneamines in the presence of semicarbazide-sensitive amine oxidase” (Sanofi, priority 2007, dated 2014)
